IC50 and Activity data for 21 compounds are collected here from ChEMBL document CHEMBL3217675, “Diaryl ureaLDV peptidomimetics as 41integrin antagonists: synthesis, adhesion inhibition and toxicity evaluation on CCRF-CEM cell line” (Medchemcomm, 2012).

The source made the active and inactive calls. The calls are words filed in the database; no cut-off is given here. Where only a bound is given, the exact number is not on record here.

The term IC50 denotes the midpoint of a concentration-inhibition curve.

Data set [1] addresses T1, Integrin alpha-4/beta-1 (Homo sapiens, UniProt P05556+P13612). The experiment in a line: Antagonist activity at integrin alpha4beta1 receptor in human CCRF-CEM cells assessed as inhibition of cell adhesion to fibronectin after 1 hr by calcein AM staining-based fluorescence assay.
Data set [2] concerns the target T1, Integrin alpha-4/beta-1. Put plainly: Antagonist activity at integrin alpha4beta1 receptor in human CCRF-CEM cells assessed as detachment of adherent cell from fibronectin at 1 to 500 uM after 24 to 48 hrs by MTT assay. Format: cell-based. (In general: Tetrazolium assays rely on reduction of a dye to a coloured formazan, in cell work by metabolically active cells.)

Data set [3] has as its system CCRF-CEM. Put plainly: Cytotoxicity against human CCRF-CEM cells assessed as cell viability up to 200 uM after 24 hrs by propidium iodide staining-based flow cytometric analysis. For orientation: In flow cytometry, cells or beads pass a laser one at a time.
For data set [4], the system named is CCRF-CEM. Put plainly: Cytotoxicity against human CCRF-CEM cells assessed as cell viability at 1 to 500 uM after 24 hrs by propidium iodide staining-based flow cytometric analysis.

T1 sequence (P05556 whole entry): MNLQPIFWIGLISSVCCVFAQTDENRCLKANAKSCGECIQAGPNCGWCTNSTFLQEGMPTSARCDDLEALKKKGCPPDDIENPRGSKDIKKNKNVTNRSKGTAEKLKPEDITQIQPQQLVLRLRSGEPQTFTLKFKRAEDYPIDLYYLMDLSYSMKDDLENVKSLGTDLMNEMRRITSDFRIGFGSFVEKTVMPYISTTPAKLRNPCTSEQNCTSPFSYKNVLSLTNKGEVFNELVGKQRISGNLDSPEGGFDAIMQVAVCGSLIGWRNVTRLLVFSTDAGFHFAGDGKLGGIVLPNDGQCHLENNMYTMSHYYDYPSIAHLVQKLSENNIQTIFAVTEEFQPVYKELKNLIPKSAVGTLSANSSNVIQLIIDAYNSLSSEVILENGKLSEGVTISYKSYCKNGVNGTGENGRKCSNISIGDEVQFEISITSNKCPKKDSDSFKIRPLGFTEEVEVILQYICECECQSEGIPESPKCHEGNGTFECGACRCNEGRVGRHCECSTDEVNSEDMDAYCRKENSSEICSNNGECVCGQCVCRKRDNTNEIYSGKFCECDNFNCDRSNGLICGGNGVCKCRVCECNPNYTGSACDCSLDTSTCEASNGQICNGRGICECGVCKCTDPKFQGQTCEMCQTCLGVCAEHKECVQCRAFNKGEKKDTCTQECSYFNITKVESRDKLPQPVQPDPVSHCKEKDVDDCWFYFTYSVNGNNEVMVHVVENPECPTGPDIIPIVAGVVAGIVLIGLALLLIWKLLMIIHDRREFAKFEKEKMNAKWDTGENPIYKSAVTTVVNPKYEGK
T1 sequence (P13612 whole entry): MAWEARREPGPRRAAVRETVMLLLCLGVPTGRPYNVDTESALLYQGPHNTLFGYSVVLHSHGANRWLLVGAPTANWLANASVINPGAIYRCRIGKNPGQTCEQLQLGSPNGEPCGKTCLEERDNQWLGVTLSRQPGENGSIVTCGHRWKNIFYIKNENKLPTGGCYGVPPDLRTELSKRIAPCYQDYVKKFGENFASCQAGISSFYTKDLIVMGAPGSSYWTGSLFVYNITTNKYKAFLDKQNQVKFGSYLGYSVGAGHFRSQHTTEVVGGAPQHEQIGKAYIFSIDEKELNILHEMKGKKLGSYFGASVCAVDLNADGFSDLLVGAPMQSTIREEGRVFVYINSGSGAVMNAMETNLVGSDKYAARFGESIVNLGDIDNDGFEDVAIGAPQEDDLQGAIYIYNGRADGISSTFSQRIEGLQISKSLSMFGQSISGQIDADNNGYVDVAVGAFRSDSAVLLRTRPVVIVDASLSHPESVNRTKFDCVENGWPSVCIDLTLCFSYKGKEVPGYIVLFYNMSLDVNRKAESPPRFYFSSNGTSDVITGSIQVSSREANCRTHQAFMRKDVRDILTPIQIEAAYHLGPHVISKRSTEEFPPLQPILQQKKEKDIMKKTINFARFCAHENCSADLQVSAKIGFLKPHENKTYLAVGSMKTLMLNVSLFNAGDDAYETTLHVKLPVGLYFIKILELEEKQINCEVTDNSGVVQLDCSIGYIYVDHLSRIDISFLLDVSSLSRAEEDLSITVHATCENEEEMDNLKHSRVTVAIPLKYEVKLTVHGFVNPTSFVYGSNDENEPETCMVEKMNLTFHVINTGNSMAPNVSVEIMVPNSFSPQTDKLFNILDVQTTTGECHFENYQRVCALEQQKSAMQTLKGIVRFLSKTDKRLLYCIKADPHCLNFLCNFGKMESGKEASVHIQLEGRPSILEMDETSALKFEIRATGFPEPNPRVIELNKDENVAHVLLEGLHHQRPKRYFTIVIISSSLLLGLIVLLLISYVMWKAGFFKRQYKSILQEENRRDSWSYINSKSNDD

In the case of `Cc1cccc(C)c1NC(=O)Nc1ccc(CC(=O)Nc2ccc(O)c(CCC(=O)O)c2)cc1`, the IC50 on Integrin alpha-4/beta-1 [1] is 138 µM.

Turning to `Cc1cccc(C)c1NC(=O)Nc1ccc(CC(=O)Nc2ccc(CCC(=O)OCc3ccccc3)c(OCC(=O)O)c2)cc1`, the IC50 on Integrin alpha-4/beta-1 [1] was 81.3 µM.

As for `COC(=O)[C@@H](NC(=O)[C@H](CC(=O)O)NC(=O)[C@H](CC(C)C)NC(=O)Cc1ccc(NC(=O)Nc2ccccc2C(F)(F)F)cc1)C(C)C`, the IC50 at Integrin alpha-4/beta-1 [1] is 703 µM.

Take `Cc1cccc(C)c1NC(=O)Nc1ccc(CC(=O)Nc2ccc(OCC(=O)O)c(CCC(=O)O)c2)cc1`: the IC50 on Integrin alpha-4/beta-1 [1] is 81.3 µM.

Consider `Cc1cccc(C)c1NC(=O)Nc1ccc(CC(=O)Nc2ccc(OCC(=O)O)c(CCC(=O)OCc3ccccc3)c2)cc1`, for which the outcome at Integrin alpha-4/beta-1 [2] was Active. For the same compound, the Activity entry with CCRF-CEM [3] and with CCRF-CEM [4] was “Non-toxic” throughout. In addition, the IC50 on Integrin alpha-4/beta-1 [1] is 24.3 µM.

As for `O=C(O)COc1ccc(NC(=O)Cc2ccc(NC(=O)Nc3ccccc3C(F)(F)F)cc2)cc1CCC(=O)OCc1ccccc1`, in the data set on CCRF-CEM [3], the Activity result is listed as “Non-toxic”. Further, on Integrin alpha-4/beta-1 [1], the IC50 was 33.1 µM.

For the compound `Cc1cccc(C)c1NC(=O)Nc1ccc(CC(=O)Nc2ccc(OCC(=O)O)c(CCC(=O)OCc3ccc(Cl)cc3)c2)cc1`, the IC50 on Integrin alpha-4/beta-1 [1] was 38.9 µM.

As for `Cc1cccc(C)c1NC(=O)Nc1ccc(CC(=O)O)cc1`, at Integrin alpha-4/beta-1 [1], the IC50 is > 1000 µM.

`Cc1cccc(C)c1NC(=O)Nc1ccc(CC(=O)Nc2ccc(OCC(=O)O)c(CCC(=O)OCCc3ccccc3)c2)cc1`: the IC50 on Integrin alpha-4/beta-1 [1] was 24.5 µM.

On to `Cc1cccc(C)c1NC(=O)Nc1ccc(CC(=O)Nc2ccc(CCC(=O)O)c(O)c2)cc1`, for which the IC50 on Integrin alpha-4/beta-1 [1] was 146 µM.

Regarding `N=C(N)NCCC[C@H](NC(=O)CN)C(=O)NCC(=O)N[C@@H](CC(=O)O)C(=O)N[C@@H](CO)C(=O)O`, the 50% inhibitory concentration (IC50) at Integrin alpha-4/beta-1 [1] was > 1000 µM.

With `O=C(O)Cc1ccc(NC(=O)Nc2ccccc2C(F)(F)F)cc1`, at Integrin alpha-4/beta-1 [1], the IC50 was > 1000 µM.

In the case of `O=C(O)CCc1cc(NC(=O)Cc2ccc(NC(=O)Nc3ccccc3C(F)(F)F)cc2)ccc1O`, at Integrin alpha-4/beta-1 [1], the IC50 is 209 µM.

Regarding `CC(C)(C)OC(=O)COc1ccc(NC(=O)Cc2ccc(NC(=O)Nc3ccccc3C(F)(F)F)cc2)cc1CCC(=O)O`, the IC50 on Integrin alpha-4/beta-1 [1] is 151 µM.

For the compound `O=C(O)COc1cc(NC(=O)Cc2ccc(NC(=O)Nc3ccccc3C(F)(F)F)cc2)ccc1CCC(=O)OCc1ccccc1`, the result on Integrin alpha-4/beta-1 [2] was Active. For the same compound, the Activity entry with CCRF-CEM [4] is “Non-toxic”. Also, the IC50 at Integrin alpha-4/beta-1 [1] was 64.6 µM.

For `Cc1cccc(C)c1NC(=O)Nc1ccc(CC(=O)Nc2ccc(OCC(=O)O)c(CCC(=O)NCCc3ccccc3)c2)cc1`, the IC50 on Integrin alpha-4/beta-1 [1] was 106 µM.

With `Cc1cccc(C)c1NC(=O)Nc1ccc(CC(=O)Nc2ccc(OCC(=O)OC(C)(C)C)c(CCC(=O)OCc3ccccc3)c2)cc1`, the IC50 on Integrin alpha-4/beta-1 [1] is 102 µM.

As to `Cc1cccc(C)c1NC(=O)Nc1ccc(CC(=O)Nc2ccc(CCC(=O)O)c(OCC(=O)OC(C)(C)C)c2)cc1`, the IC50 on Integrin alpha-4/beta-1 [1] was 190 µM.

Regarding `Cc1cccc(C)c1NC(=O)Nc1ccc(CC(=O)Nc2ccc(OCC(=O)O)c(CCC(=O)NCc3ccccc3)c2)cc1`, on Integrin alpha-4/beta-1 [1], the IC50 is 97.7 µM.

With `O=C(O)CCc1ccc(NC(=O)Cc2ccc(NC(=O)Nc3ccccc3C(F)(F)F)cc2)cc1O`, the IC50 on Integrin alpha-4/beta-1 [1] was > 500 µM.

Consider `CC(C)(C)OC(=O)COc1cc(NC(=O)Cc2ccc(NC(=O)Nc3ccccc3C(F)(F)F)cc2)ccc1CCC(=O)O`, for which the IC50 on Integrin alpha-4/beta-1 [1] is 79.4 µM.
